Patent US20130096170A1 (priority 2011, published 2013)

Tests used:
[1] = human, in vivo
[2] = clinical; details: human

## Cc1cccc([C@H](C)c2cnc[nH]2)c1C [dexmedetomidine]
[1]
  t1/2, Mean: 2.260 h
[2]; in vivo
  Vd: 43 L
[2]; in vivo, AUC0-t
  AUC(0-t): 117 ng·h/mL
[2]; in vivo, AUC0-∞
  AUC(0-inf): 117 ng·h/mL
[2]; in vivo, Cmax
  Cmax: 28.8 ng/mL
[2]; in vivo, weight-adjusted clearance
  clearance: ~16.7 mL/min/kg
[2]; plasma, intravenous, 0.2 ug/kg, CL, Group I (≥2 to <6 y), Dose Level 1 (LD 0.25/CD 0.2 μg/kg/hr), geometric mean, full evaluable population
  clearance: 271 mL/min
[2]; plasma, intravenous, 0.2 ug/kg, CL, Group II (≥6 to <17 y), Dose Level 1 (LD 0.25/CD 0.2 μg/kg/hr), geometric mean, full evaluable population
  clearance: 412 mL/min
[2]; plasma, intravenous, 0.2 ug/kg, Vd, Group I (≥2 to <6 y), Dose Level 1 (LD 0.25/CD 0.2 μg/kg/hr), geometric mean, full evaluable population
  Vd: 36.9 L
[2]; plasma, intravenous, 0.2 ug/kg, Vd, Group II (≥6 to <17 y), Dose Level 1 (LD 0.25/CD 0.2 μg/kg/hr), geometric mean, full evaluable population
  Vd: 51.7 L
[2]; plasma, intravenous, 0.4 ug/kg, CL, Group I (≥2 to <6 y), Dose Level 2 (LD 0.50/CD 0.4 μg/kg/hr), geometric mean, full evaluable population
  clearance: 212 mL/min
[2]; plasma, intravenous, 0.4 ug/kg, CL, Group II (≥6 to <17 y), Dose Level 2 (LD 0.50/CD 0.4 μg/kg/hr), geometric mean, full evaluable population
  clearance: 413 mL/min
[2]; plasma, intravenous, 0.4 ug/kg, Vd, Group I (≥2 to <6 y), Dose Level 2 (LD 0.50/CD 0.4 μg/kg/hr), geometric mean, full evaluable population
  Vd: 31.8 L
[2]; plasma, intravenous, 0.4 ug/kg, Vd, Group II (≥6 to <17 y), Dose Level 2 (LD 0.50/CD 0.4 μg/kg/hr), geometric mean, full evaluable population
  Vd: 61.2 L
[2]; plasma, intravenous, 0.7 ug/kg, CL, Group I (≥2 to <6 y), Dose Level 3 (LD 1.00/CD 0.7 μg/kg/hr), geometric mean, full evaluable population
  clearance: 276 mL/min
[2]; plasma, intravenous, 0.7 ug/kg, CL, Group II (≥6 to <17 y), Dose Level 3 (LD 1.00/CD 0.7 μg/kg/hr), geometric mean, full evaluable population
  clearance: 274 mL/min
[2]; plasma, intravenous, 0.7 ug/kg, Vd, Group I (≥2 to <6 y), Dose Level 3 (LD 1.00/CD 0.7 μg/kg/hr), geometric mean, full evaluable population
  Vd: 46.6 L
[2]; plasma, intravenous, 0.7 ug/kg, Vd, Group II (≥6 to <17 y), Dose Level 3 (LD 1.00/CD 0.7 μg/kg/hr), geometric mean, full evaluable population
  Vd: 46.6 L
[2]; plasma, intravenous, 2 ug/kg, CL, Group I (≥2 to <6 y), Dose Level 4 (LD 1.00/CD 2.00 μg/kg/hr), geometric mean, full evaluable population
  clearance: 199 mL/min
[2]; plasma, intravenous, 2 ug/kg, CL, Group II (≥6 to <17 y), Dose Level 4 (LD 1.00/CD 2.00 μg/kg/hr), geometric mean, full evaluable population
  clearance: 423 mL/min
[2]; plasma, intravenous, 2 ug/kg, Vd, Group I (≥2 to <6 y), Dose Level 4 (LD 1.00/CD 2.00 μg/kg/hr), geometric mean, full evaluable population
  Vd: 36.3 L
[2]; plasma, intravenous, 2 ug/kg, Vd, Group II (≥6 to <17 y), Dose Level 4 (LD 1.00/CD 2.00 μg/kg/hr), geometric mean, full evaluable population
  Vd: 72.8 L
[2]; plasma, intravenous, AUC0-t Mean, Dose Level 1, LD 0.25/CD 0.2 μg/kg/hr, full evaluable population
  AUC(0-t): 2.68 ng·h/mL
[2]; plasma, intravenous, AUC0-t Mean, Dose Level 2, LD 0.50/CD 0.4 μg/kg/hr, full evaluable population
  AUC(0-t): 6.46 ng·h/mL
[2]; plasma, intravenous, AUC0-t Mean, Dose Level 3, LD 1.00/CD 0.7 μg/kg/hr, full evaluable population
  AUC(0-t): 17 ng·h/mL
[2]; plasma, intravenous, AUC0-t Mean, Dose Level 4, LD 1.00/CD 2.00 μg/kg/hr, full evaluable population
  AUC(0-t): 28.5 ng·h/mL
[2]; plasma, intravenous, AUC0-t Median, Dose Level 1, LD 0.25/CD 0.2 μg/kg/hr, full evaluable population
  AUC(0-t): 1.54 ng·h/mL
[2]; plasma, intravenous, AUC0-t Median, Dose Level 2, LD 0.50/CD 0.4 μg/kg/hr, full evaluable population
  AUC(0-t): 5.25 ng·h/mL
[2]; plasma, intravenous, AUC0-t Median, Dose Level 3, LD 1.00/CD 0.7 μg/kg/hr, full evaluable population
  AUC(0-t): 5.61 ng·h/mL
[2]; plasma, intravenous, AUC0-t Median, Dose Level 4, LD 1.00/CD 2.00 μg/kg/hr, full evaluable population
  AUC(0-t): 25.4 ng·h/mL
[2]; plasma, intravenous, AUC0-t, Table 30 key summary (mean), Dose Level 1, LD 0.25/CD 0.2 μg/kg/hr, full evaluable population
  AUC(0-t): 2.68 ng·h/mL
[2]; plasma, intravenous, AUC0-t, Table 30 key summary (mean), Dose Level 2, LD 0.50/CD 0.4 μg/kg/hr, full evaluable population
  AUC(0-t): 6.46 ng·h/mL
[2]; plasma, intravenous, AUC0-t, Table 30 key summary (mean), Dose Level 3, LD 1.00/CD 0.7 μg/kg/hr, full evaluable population
  AUC(0-t): 17 ng·h/mL
[2]; plasma, intravenous, AUC0-t, Table 30 key summary (mean), Dose Level 4, LD 1.00/CD 2.00 μg/kg/hr, full evaluable population
  AUC(0-t): 28.5 ng·h/mL
[2]; plasma, intravenous, AUC0-∞ Mean, Dose Level 1, LD 0.25/CD 0.2 μg/kg/hr, full evaluable population
  AUC(0-inf): 3.15 ng·h/mL
[2]; plasma, intravenous, AUC0-∞ Mean, Dose Level 2, LD 0.50/CD 0.4 μg/kg/hr, full evaluable population
  AUC(0-inf): 6.67 ng·h/mL
[2]; plasma, intravenous, AUC0-∞ Mean, Dose Level 3, LD 1.00/CD 0.7 μg/kg/hr, full evaluable population
  AUC(0-inf): 17.3 ng·h/mL
[2]; plasma, intravenous, AUC0-∞ Mean, Dose Level 4, LD 1.00/CD 2.00 μg/kg/hr, full evaluable population
  AUC(0-inf): 29 ng·h/mL
[2]; plasma, intravenous, AUC0-∞ Median, Dose Level 1, LD 0.25/CD 0.2 μg/kg/hr, full evaluable population
  AUC(0-inf): 1.58 ng·h/mL
[2]; plasma, intravenous, AUC0-∞ Median, Dose Level 2, LD 0.50/CD 0.4 μg/kg/hr, full evaluable population
  AUC(0-inf): 5.52 ng·h/mL
[2]; plasma, intravenous, AUC0-∞ Median, Dose Level 3, LD 1.00/CD 0.7 μg/kg/hr, full evaluable population
  AUC(0-inf): 6.08 ng·h/mL
[2]; plasma, intravenous, AUC0-∞ Median, Dose Level 4, LD 1.00/CD 2.00 μg/kg/hr, full evaluable population
  AUC(0-inf): 25.7 ng·h/mL
[2]; plasma, intravenous, AUC0-∞, Table 30 key summary (mean), Dose Level 1, LD 0.25/CD 0.2 μg/kg/hr, full evaluable population
  AUC(0-inf): 3.15 ng·h/mL
[2]; plasma, intravenous, AUC0-∞, Table 30 key summary (mean), Dose Level 2, LD 0.50/CD 0.4 μg/kg/hr, full evaluable population
  AUC(0-inf): 6.67 ng·h/mL
[2]; plasma, intravenous, AUC0-∞, Table 30 key summary (mean), Dose Level 3, LD 1.00/CD 0.7 μg/kg/hr, full evaluable population
  AUC(0-inf): 17.3 ng·h/mL
[2]; plasma, intravenous, AUC0-∞, Table 30 key summary (mean), Dose Level 4, LD 1.00/CD 2.00 μg/kg/hr, full evaluable population
  AUC(0-inf): 29 ng·h/mL
[2]; plasma, intravenous, CL Mean, Dose Level 1, LD 0.25/CD 0.2 μg/kg/hr, full evaluable population
  clearance: 537 mL/min
[2]; plasma, intravenous, CL Mean, Dose Level 2, LD 0.50/CD 0.4 μg/kg/hr, full evaluable population
  clearance: 338 mL/min
[2]; plasma, intravenous, CL Mean, Dose Level 3, LD 1.00/CD 0.7 μg/kg/hr, full evaluable population
  clearance: 309 mL/min
[2]; plasma, intravenous, CL Mean, Dose Level 4, LD 1.00/CD 2.00 μg/kg/hr, full evaluable population
  clearance: 370 mL/min
[2]; plasma, intravenous, CL Median, Dose Level 1, LD 0.25/CD 0.2 μg/kg/hr, full evaluable population
  clearance: 326 mL/min
[2]; plasma, intravenous, CL Median, Dose Level 2, LD 0.50/CD 0.4 μg/kg/hr, full evaluable population
  clearance: 267 mL/min
[2]; plasma, intravenous, CL Median, Dose Level 3, LD 1.00/CD 0.7 μg/kg/hr, full evaluable population
  clearance: 270 mL/min
[2]; plasma, intravenous, CL Median, Dose Level 4, LD 1.00/CD 2.00 μg/kg/hr, full evaluable population
  clearance: 282 mL/min
[2]; plasma, intravenous, CL, Table 30 key summary (mean), Dose Level 1, LD 0.25/CD 0.2 μg/kg/hr, full evaluable population
  clearance: 537 mL/min
[2]; plasma, intravenous, CL, Table 30 key summary (mean), Dose Level 2, LD 0.50/CD 0.4 μg/kg/hr, full evaluable population
  clearance: 338 mL/min
[2]; plasma, intravenous, CL, Table 30 key summary (mean), Dose Level 3, LD 1.00/CD 0.7 μg/kg/hr, full evaluable population
  clearance: 310 mL/min
[2]; plasma, intravenous, CL, Table 30 key summary (mean), Dose Level 4, LD 1.00/CD 2.00 μg/kg/hr, full evaluable population
  clearance: 370 mL/min
[2]; plasma, intravenous, Cmax Mean, Dose Level 1, LD 0.25/CD 0.2 μg/kg/hr, full evaluable population
  Cmax: 0.48 ng/mL
[2]; plasma, intravenous, Cmax Mean, Dose Level 2, LD 0.50/CD 0.4 μg/kg/hr, full evaluable population
  Cmax: 0.848 ng/mL
[2]; plasma, intravenous, Cmax Mean, Dose Level 3, LD 1.00/CD 0.7 μg/kg/hr, full evaluable population
  Cmax: 3.39 ng/mL
[2]; plasma, intravenous, Cmax Mean, Dose Level 4, LD 1.00/CD 2.00 μg/kg/hr, full evaluable population
  Cmax: 3.09 ng/mL
[2]; plasma, intravenous, Cmax Median, Dose Level 1, LD 0.25/CD 0.2 μg/kg/hr, full evaluable population
  Cmax: 0.266 ng/mL
[2]; plasma, intravenous, Cmax Median, Dose Level 2, LD 0.50/CD 0.4 μg/kg/hr, full evaluable population
  Cmax: 0.581 ng/mL
[2]; plasma, intravenous, Cmax Median, Dose Level 3, LD 1.00/CD 0.7 μg/kg/hr, full evaluable population
  Cmax: 0.966 ng/mL
[2]; plasma, intravenous, Cmax Median, Dose Level 4, LD 1.00/CD 2.00 μg/kg/hr, full evaluable population
  Cmax: 2.69 ng/mL
[2]; plasma, intravenous, Cmax, Table 30 key summary (mean), Dose Level 1, LD 0.25/CD 0.2 μg/kg/hr, full evaluable population
  Cmax: 0.48 ng/mL
[2]; plasma, intravenous, Cmax, Table 30 key summary (mean), Dose Level 2, LD 0.50/CD 0.4 μg/kg/hr, full evaluable population
  Cmax: 0.848 ng/mL
[2]; plasma, intravenous, Cmax, Table 30 key summary (mean), Dose Level 3, LD 1.00/CD 0.7 μg/kg/hr, full evaluable population
  Cmax: 3.39 ng/mL
